≈ marks a conversion by molar mass, not a printed value.
System: up to 32 different microorganisms
Assay: in vitro antibacterial activity (MIC), agar dilution on Brain Heart Infusion (BHI) agar with Steers replicator
Assay type: cell-based
Conditions: unit assumed
Method in brief: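 Agar dilution, 12 plates/compound; inoc 1:100 (1:10 Micrococcus, Streptococcus); 35°-37° C, 20–24 h. Erythromycin A reference plate plus drug-free growth controls at start and end. Endpoint = no growth/slight haze/sparse colonies.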

[1] = Candida albicans CCH 442 (code TT)
[2] = Enterococcus faecism ATCC 8043 (code II)
[3] = Escherichia coli DC-2 (code SS)
[4] = Escherichia coli JUHL (code QQ)
[5] = Haemophilis influenzae DILL AMP R (code WW)
[6] = Micrococcus luteus ATCC 4698 (code PP)
[7] = Micrococcus luteus ATCC 9341 (code OO)
[8] = Mycobacterium smegmatis ATCC 114 (code UU)
[9] = Nocardia Asteroides ATCC9970 (code VV)
[10] = Staphylococcus aureus 1775 (code GG)
[11] = Staphylococcus aureus A5177 (code BB)
[12] = Staphylococcus aureus A-5278 (code CC)
[13] = Staphylococcus aureus ATCC 6538P (code AA)
[14] = Staphylococcus aureus CMX 553 (code FF)
[15] = Staphylococcus aureus CMX 642A (code DD)
[16] = Staphylococcus aureus NCTC10649M (code EE)
[17] = Staphylococcus epidermidis 3519 (code HH)
[18] = Streptococcus Pneumonia 5649 (code ZZA)
[19] = Streptococcus Pneumonia 5979 (code ZZ)
[20] = Streptococcus Pneumonia ATCC6303 (code XX)
[21] = Streptococcus Pneumonia GYR 1171 (code YY)
[22] = Streptococcus agalactiae CMX 508 (code KK)
[23] = Streptococcus bovis A-5169 (code JJ)
[24] = Streptococcus pyogenes 930 (code MM)
[25] = Streptococcus pyogenes EES61 (code LL)
[26] = Streptococcus pyogenes PIU 2548 (code NN)

C=CCO[C@@]1(C)C[C@@H](C)C(=O)[C@H](C)[C@H]2N(C)C(=O)O[C@]2(C)[C@@H](CC)OC(=O)[C@H](C)C(=O)[C@H](C)[C@H]1O[C@@H]1O[C@H](C)C[C@H](N(C)C)[C@H]1O [Example 179, Compound of Formula (IX): L is CO, T is N(CH3), R is —CH2CH═CH2]
MIC [1]: > 100 µg/mL
MIC [2]: 1.56 µg/mL
MIC [3]: > 100 µg/mL
MIC [4]: > 100 µg/mL
MIC (Escherichia coli SS (code RR)): 6.2 µg/mL
MIC [5]: > 128 µg/mL
MIC [6]: 3.1 µg/mL
MIC [7]: 1.56 µg/mL
MIC [8]: 12.5 µg/mL
MIC [9]: 3.1 µg/mL
MIC [10]: > 100 µg/mL
MIC [11]: 6.2 µg/mL
MIC [12]: > 100 µg/mL
MIC [13]: 6.2 µg/mL
MIC [14]: 6.2 µg/mL
MIC [15]: 6.2 µg/mL
MIC [16]: 6.2 µg/mL
MIC [17]: 12.5 µg/mL
MIC [18]: 0.5 µg/mL
MIC [19]: > 128 µg/mL
MIC [20]: 0.5 µg/mL
MIC [21]: 0.5 µg/mL
MIC [22]: 0.39 µg/mL
MIC [23]: 0.39 µg/mL
MIC [24]: > 100 µg/mL
MIC [25]: 0.39 µg/mL
MIC [26]: 0.78 µg/mL

CCC1OC(=O)C(C)C(=O)C(C)C(OC2OC(C)CC(N(C)C)C2O)C(C)(OCC#Cc2cnc3ccccc3c2)CC(C)C(=O)C(C)C2NC(=O)OC12C (stereo not drawn) [Example 247, Compound of Formula (IX): L is CO, T is NH, R is —CH2—C≡C-(3-quinolyl)]
MIC (organism code AA): 0.05 µg/mL
MIC (organism code BB): 0.05 µg/mL
MIC (organism code CC): > 100 µg/mL
MIC (organism code DD): 0.05 µg/mL
MIC (organism code EE): 0.05 µg/mL
MIC (organism code FF): 0.05 µg/mL
MIC (organism code GG): > 100 µg/mL
MIC (organism code HH): 0.05 µg/mL
MIC (organism code II): 0.02 µg/mL
MIC (organism code JJ): ≤ 0.005 µg/mL
MIC (organism code KK): 0.01 µg/mL
MIC (organism code LL): 0.01 µg/mL
MIC (organism code MM): 0.39 µg/mL
MIC (organism code NN): 0.1 µg/mL
MIC (organism code OO): 0.01 µg/mL
MIC (organism code PP): 0.02 µg/mL
MIC (organism code QQ): 25 µg/mL
MIC (organism code RR): 0.2 µg/mL
MIC (organism code SS): 25 µg/mL
MIC (organism code TT): > 100 µg/mL
MIC (organism code UU): 0.39 µg/mL
MIC (organism code VV): 0.01 µg/mL
MIC (organism code WW): 1 µg/mL
MIC (organism code XX): ≤ 0.004 µg/mL
MIC (organism code YY): ≤ 0.004 µg/mL
MIC (organism code ZZ): 4 µg/mL
MIC (organism code ZZA): 0.25 µg/mL

CCC1OC(=O)C(C)C(=O)C(C)C(OC2OC(C)CC(N(C)C)C2O)C(C)(OCC=Cc2ccc(C)c3ccccc23)CC(C)C(=O)C(C)C2NC(=O)OC12C (stereo not drawn) [Example 276, Compound of Formula (IX): L is CO, T is NH2, R is —CH2CH═CH-(4-methylnaphthyl)]
MIC (organism code AA): 0.39 µg/mL
MIC (organism code BB): 0.78 µg/mL
MIC (organism code CC): 50 µg/mL
MIC (organism code DD): 0.39 µg/mL
MIC (organism code EE): 0.78 µg/mL
MIC (organism code FF): 0.78 µg/mL
MIC (organism code GG): 25 µg/mL
MIC (organism code HH): 0.78 µg/mL
MIC (organism code II): 0.2 µg/mL
MIC (organism code JJ): 0.02 µg/mL
MIC (organism code KK): 0.1 µg/mL
MIC (organism code LL): 0.02 µg/mL
MIC (organism code MM): 25 µg/mL
MIC (organism code NN): 0.39 µg/mL
MIC (organism code OO): 0.1 µg/mL
MIC (organism code PP): 0.39 µg/mL
MIC (organism code QQ): > 100 µg/mL
MIC (organism code RR): 6.2 µg/mL
MIC (organism code SS): > 100 µg/mL
MIC (organism code TT): > 100 µg/mL
MIC (organism code UU): 0.78 µg/mL
MIC (organism code VV): 1.56 µg/mL
MIC (organism code WW): 8 µg/mL
MIC (organism code XX): 0.125 µg/mL
MIC (organism code YY): 0.125 µg/mL
MIC (organism code ZZ): 16 µg/mL
MIC (organism code ZZA): 0.5 µg/mL

CCC1OC(=O)C(C)C(=O)C(C)C(OC2OC(C)CC(N(C)C)C2O)C(C)(OCC=Cc2ccnc3ccccc23)CC(C)C(=O)C(C)C2NC(=O)OC12C (stereo not drawn) [Example 213, R is —CH2CH═CH-(4-quinolyl)]
MIC (organism code AA): 0.2 µg/mL (≈ 0.261 µM)
MIC (organism code BB): 0.2 µg/mL (≈ 0.261 µM)
MIC (organism code CC): > 100 µg/mL
MIC (organism code DD): 0.2 µg/mL (≈ 0.261 µM)
MIC (organism code EE): 0.2 µg/mL (≈ 0.261 µM)
MIC (organism code FF): 0.2 µg/mL (≈ 0.261 µM)
MIC (organism code GG): > 100 µg/mL
MIC (organism code HH): 0.2 µg/mL (≈ 0.261 µM)
MIC (organism code II): 0.1 µg/mL (≈ 0.131 µM)
MIC (organism code JJ): 0.05 µg/mL (≈ 0.0653 µM)
MIC (organism code KK): 0.05 µg/mL (≈ 0.0653 µM)
MIC (organism code LL): 0.02 µg/mL (≈ 0.0261 µM)
MIC (organism code MM): 100 µg/mL (≈ 131 µM)
MIC (organism code NN): 0.39 µg/mL (≈ 0.509 µM)
MIC (organism code OO): 0.05 µg/mL (≈ 0.0653 µM)
MIC (organism code PP): 0.2 µg/mL (≈ 0.261 µM)
MIC (organism code QQ): 100 µg/mL (≈ 131 µM)
MIC (organism code RR): 0.39 µg/mL (≈ 0.509 µM)
MIC (organism code SS): > 100 µg/mL
MIC (organism code TT): > 100 µg/mL
MIC (organism code UU): 0.39 µg/mL (≈ 0.509 µM)
MIC (organism code VV): 0.39 µg/mL (≈ 0.509 µM)
MIC (organism code WW): 4 µg/mL (≈ 5.22 µM)
MIC (organism code XX): 0.03 µg/mL (≈ 0.0392 µM)
MIC (organism code YY): 0.03 µg/mL (≈ 0.0392 µM)
MIC (organism code ZZ): > 128 µg/mL
MIC (organism code ZZA): 1 µg/mL (≈ 1.31 µM)

CC[C@H]1OC(=O)[C@H](C)C(=O)[C@H](C)[C@@H](O[C@@H]2O[C@H](C)C[C@H](N(C)C)[C@H]2O)[C@@](C)(OCCCc2cnc3ccccc3c2)C[C@@H](C)C2=NCCN3C(=O)O[C@@]1(C)[C@H]3[C@H]2C [Example 171, Compound of Formula (VII): A, B, D, and E are H, R is —CH2CH2CH2-(3-quinolyl)]
MIC [1]: > 100 µg/mL
MIC [2]: 0.05 µg/mL
MIC [3]: 25 µg/mL
MIC [4]: 25 µg/mL
MIC (Escherichia coli SS (code RR)): 0.39 µg/mL
MIC [5]: 2 µg/mL
MIC [6]: 0.39 µg/mL
MIC [7]: 0.01 µg/mL
MIC [8]: 0.78 µg/mL
MIC [9]: 0.05 µg/mL
MIC [10]: > 100 µg/mL
MIC [11]: 0.05 µg/mL
MIC [12]: > 100 µg/mL
MIC [13]: 0.1 µg/mL
MIC [14]: 0.05 µg/mL
MIC [15]: 0.05 µg/mL
MIC [16]: 0.02 µg/mL
MIC [17]: 0.1 µg/mL
MIC [18]: 1 µg/mL
MIC [19]: > 16 µg/mL
MIC [20]: 0.03 µg/mL
MIC [21]: 0.03 µg/mL
MIC [22]: 0.02 µg/mL
MIC [23]: ≤ 0.005 µg/mL
MIC [24]: 25 µg/mL
MIC [25]: ≤ 0.005 µg/mL
MIC [26]: 0.2 µg/mL

CCC(=O)OC1C(OC2C(C)C(=O)C(C)C(=O)OC(CC)C3(C)OC(=O)NC3C(C)C(=O)C(C)CC2(C)OCC=Cc2cnc3ccccc3c2)OC(C)CC1N(C)C (stereo not drawn) [Example 244, Compound of Formula (III): R^c is propanoyl, L is CO, T is NH, R is —CH2CH═CH(3-quinolyl)]
MIC (organism code AA): 0.1 µg/mL
MIC (organism code BB): 0.2 µg/mL
MIC (organism code CC): > 100 µg/mL
MIC (organism code DD): 0.2 µg/mL
MIC (organism code EE): 0.2 µg/mL
MIC (organism code FF): 0.1 µg/mL
MIC (organism code GG): > 100 µg/mL
MIC (organism code HH): 0.2 µg/mL
MIC (organism code II): 0.05 µg/mL
MIC (organism code JJ): 0.01 µg/mL
MIC (organism code KK): ≤ 0.005 µg/mL
MIC (organism code LL): 0.02 µg/mL
MIC (organism code MM): 1.56 µg/mL
MIC (organism code NN): 0.2 µg/mL
MIC (organism code OO): 0.02 µg/mL
MIC (organism code PP): 0.2 µg/mL
MIC (organism code QQ): 50 µg/mL
MIC (organism code RR): 0.1 µg/mL
MIC (organism code SS): 25 µg/mL
MIC (organism code TT): > 100 µg/mL
MIC (organism code UU): 0.78 µg/mL
MIC (organism code VV): 0.02 µg/mL
MIC (organism code WW): 2 µg/mL
MIC (organism code XX): 0.03 µg/mL
MIC (organism code YY): 0.03 µg/mL
MIC (organism code ZZ): 64 µg/mL
MIC (organism code ZZA): 0.5 µg/mL

— USRE39591E1, “6-O-substituted ketolides having antibacterial activity” (Abbott Laboratories, priority 1996, dated 2007)
